The results in this text go back to patent publication US20250034165A1, “COMPOUND CONTAINING CYCLOALKYL OR HALOALKYL” (CHIA TAI TIANQING PHARMACEUTICAL GROUP CO., LTD., priority 2021, published 2025).

Structures are written as SMILES. Read-outs that look alike come from different tables or passages of the source. Where only a bound is given, the exact number is not on record here.

For assay [1], the target named is EGFR (L858R/T790M) (Homo sapiens (Human), UniProt P00533, L858R/T790M). Briefly: Inhibitory activity for EGFR (L858R/T790M) kinase. In kind it is biochemical. Particulars: ATP 5 μM. As to the method: (§1) A 50 ng/μL EGFR (L858R/T790M, Carna) stock solution was diluted with a kinase buffer (50 mM HEPES, 10 mM MgCl2, 2 mM DTT, 1 mM EGTA, 0.01% Tween 20), and 6 μL of 1.67× working solution at 0.004175 ng/μL (final concentration: 0.0025 ng/μL) was added to each well. Different compounds dissolved in DMSO were added to wells using a nanoliter pipettor, resulting in the final concentrations of the compounds of 10 nM to 0.0024 nM (4-fold gradient, 7 concentrations in total), and blank control wells (without enzyme) and negative control wells (with enzyme, plus vehicle DMSO) were set, 2 replicate wells for each concentration. After enzyme was reacted with the compound or vehicle for 30 min, 5×ATP at 25 μM (final concentration: 5 μM, Sigma) prepared with a kinase buffer was mixed with 5× substrate at 0.5 μM (final concentration: 0.1 μM, ULight-poly GT, PerkinElmer) at a ratio of 1:1 (v:v), and the mixture was added to each well at 4 μL/well. After being sealed with a film, the plate was incubated at room temperature for 2 h, and then 5 μL of 4×EDTA at 40 mM (final concentration: 10 mM) was added to each well. After the plate was incubated for 5 min at room temperature, 5 μL of 4× detection reagent at 8 nM (final concentration: 2 nM, Eu-anti-phospho-tyrosine antibody, PerkinElmer) was added to each well. After being incubated at room temperature for 1 h, the plate was read using a PerkinElmer Envision multi-mode microplate reader (excitation: 320 nm, emission: 665 nm), and IC50 was calculated by four-parameter fitting.

The target in assay [2] is EGFR (L858R/T790M/C797S) (Homo sapiens (Human), UniProt P00533, C797S/L858R/T790M). Briefly: Inhibitory activity for EGFR (L858R/T790M/C797S) kinase. It counts as biochemical. Particulars: ATP 5 μM. As to the method:
as §1, with “(L858R/T790M/C797S, BPS)” for “(L858R/T790M, Carna)”, “0.00167” for “0.004175”, “0.001” for “0.0025”

Assay [3] deals with EGFR (d746-750/T790M/C797S) (Homo sapiens (Human), UniProt P00533, C797S/DEL746-750/T790M). Briefly: Inhibitory activity for EGFR (d746-750/T790M/C797S) kinase. It counts as biochemical. As to conditions: ATP 5 μM; read-out: EGFR(d19/T790M/C797S) (IC50). The method in brief: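 EGFR d746-750/T790M/C797S (0.03 ng/μL final) preincubated 30 min with compound (10 nM–0.0024 nM, 4-fold, 7 points). Reaction with 5 μM ATP and 0.1 μM ULight-poly GT, 2 h at room temperature; EDTA stop, Eu-anti-phosphotyrosine TR-FRET read at 665 nm, IC50 by four-parameter fit.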

For assay [4], the system named is BAF3-EGFR (L858R/T790M/C797S) cells. Briefly: Inhibition of proliferation of BAF3-EGFR (L858R/T790M/C797S) cells, CCK-8. In kind it is cell-based. Particulars: 72 h, read-out: BAF3(EGFR T790M L858R C797S) cell inhibitory activity IC50. The method in brief: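 BaF3 EGFR L858R/T790M/C797S cells seeded at 1.5×10^5 cells/mL in RPMI + 10% FBS, 37 °C, compound added after overnight, duplicates. Viability by CCK-8; % inhibition vs untreated and blank, IC50 by four-parameter fit.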

EGFR (d746-750/T790M/C797S), sequence (P00533 other isoform, or with tags, fused parts or gaps T790M/C797S/del 1-694/del 746-750 limits assumed): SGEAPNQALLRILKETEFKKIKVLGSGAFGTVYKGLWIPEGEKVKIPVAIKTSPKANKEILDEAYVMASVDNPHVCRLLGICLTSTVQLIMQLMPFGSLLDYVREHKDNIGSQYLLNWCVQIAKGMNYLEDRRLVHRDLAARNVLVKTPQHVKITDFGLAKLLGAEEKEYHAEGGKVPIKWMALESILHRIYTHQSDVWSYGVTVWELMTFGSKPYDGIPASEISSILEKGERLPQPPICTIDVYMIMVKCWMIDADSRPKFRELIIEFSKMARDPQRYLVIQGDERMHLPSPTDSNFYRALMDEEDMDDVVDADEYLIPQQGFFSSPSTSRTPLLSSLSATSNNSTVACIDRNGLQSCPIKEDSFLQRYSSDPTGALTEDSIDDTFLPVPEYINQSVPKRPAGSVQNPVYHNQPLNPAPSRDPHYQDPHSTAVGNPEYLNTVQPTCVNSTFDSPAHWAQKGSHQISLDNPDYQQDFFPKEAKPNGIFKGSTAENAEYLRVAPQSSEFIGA
EGFR (L858R/T790M), sequence (P00533 25-1210 T790M/L858R): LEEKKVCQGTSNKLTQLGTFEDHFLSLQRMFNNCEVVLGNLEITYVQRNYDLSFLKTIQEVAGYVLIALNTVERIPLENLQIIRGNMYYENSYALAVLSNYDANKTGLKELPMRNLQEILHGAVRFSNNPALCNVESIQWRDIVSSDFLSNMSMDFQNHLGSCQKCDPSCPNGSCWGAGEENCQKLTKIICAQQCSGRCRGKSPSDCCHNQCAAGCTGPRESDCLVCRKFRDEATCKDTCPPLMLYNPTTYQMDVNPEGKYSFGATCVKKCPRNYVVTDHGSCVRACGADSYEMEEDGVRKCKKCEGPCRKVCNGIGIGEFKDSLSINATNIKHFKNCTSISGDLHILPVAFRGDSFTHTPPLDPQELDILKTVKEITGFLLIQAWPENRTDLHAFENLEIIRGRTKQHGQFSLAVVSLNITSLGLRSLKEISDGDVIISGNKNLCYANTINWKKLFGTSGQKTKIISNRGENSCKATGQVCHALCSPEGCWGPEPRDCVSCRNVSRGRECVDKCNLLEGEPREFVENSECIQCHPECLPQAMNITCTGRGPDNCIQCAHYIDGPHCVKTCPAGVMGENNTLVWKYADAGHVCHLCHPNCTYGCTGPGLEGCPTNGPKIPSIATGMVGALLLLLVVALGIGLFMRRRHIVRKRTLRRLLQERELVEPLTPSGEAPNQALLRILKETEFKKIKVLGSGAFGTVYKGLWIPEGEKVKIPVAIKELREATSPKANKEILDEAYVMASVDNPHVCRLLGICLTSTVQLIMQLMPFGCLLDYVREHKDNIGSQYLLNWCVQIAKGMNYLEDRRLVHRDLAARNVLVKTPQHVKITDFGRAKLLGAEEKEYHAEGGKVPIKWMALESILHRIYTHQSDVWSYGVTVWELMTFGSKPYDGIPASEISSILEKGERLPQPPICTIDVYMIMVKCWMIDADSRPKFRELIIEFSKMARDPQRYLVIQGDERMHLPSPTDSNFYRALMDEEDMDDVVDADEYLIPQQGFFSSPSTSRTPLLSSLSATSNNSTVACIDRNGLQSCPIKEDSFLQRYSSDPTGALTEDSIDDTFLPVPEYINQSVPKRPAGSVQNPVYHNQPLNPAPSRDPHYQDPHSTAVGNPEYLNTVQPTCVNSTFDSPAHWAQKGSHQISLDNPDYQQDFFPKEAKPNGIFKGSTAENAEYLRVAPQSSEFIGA
EGFR (L858R/T790M/C797S), sequence (P00533 25-1210 T790M/C797S/L858R): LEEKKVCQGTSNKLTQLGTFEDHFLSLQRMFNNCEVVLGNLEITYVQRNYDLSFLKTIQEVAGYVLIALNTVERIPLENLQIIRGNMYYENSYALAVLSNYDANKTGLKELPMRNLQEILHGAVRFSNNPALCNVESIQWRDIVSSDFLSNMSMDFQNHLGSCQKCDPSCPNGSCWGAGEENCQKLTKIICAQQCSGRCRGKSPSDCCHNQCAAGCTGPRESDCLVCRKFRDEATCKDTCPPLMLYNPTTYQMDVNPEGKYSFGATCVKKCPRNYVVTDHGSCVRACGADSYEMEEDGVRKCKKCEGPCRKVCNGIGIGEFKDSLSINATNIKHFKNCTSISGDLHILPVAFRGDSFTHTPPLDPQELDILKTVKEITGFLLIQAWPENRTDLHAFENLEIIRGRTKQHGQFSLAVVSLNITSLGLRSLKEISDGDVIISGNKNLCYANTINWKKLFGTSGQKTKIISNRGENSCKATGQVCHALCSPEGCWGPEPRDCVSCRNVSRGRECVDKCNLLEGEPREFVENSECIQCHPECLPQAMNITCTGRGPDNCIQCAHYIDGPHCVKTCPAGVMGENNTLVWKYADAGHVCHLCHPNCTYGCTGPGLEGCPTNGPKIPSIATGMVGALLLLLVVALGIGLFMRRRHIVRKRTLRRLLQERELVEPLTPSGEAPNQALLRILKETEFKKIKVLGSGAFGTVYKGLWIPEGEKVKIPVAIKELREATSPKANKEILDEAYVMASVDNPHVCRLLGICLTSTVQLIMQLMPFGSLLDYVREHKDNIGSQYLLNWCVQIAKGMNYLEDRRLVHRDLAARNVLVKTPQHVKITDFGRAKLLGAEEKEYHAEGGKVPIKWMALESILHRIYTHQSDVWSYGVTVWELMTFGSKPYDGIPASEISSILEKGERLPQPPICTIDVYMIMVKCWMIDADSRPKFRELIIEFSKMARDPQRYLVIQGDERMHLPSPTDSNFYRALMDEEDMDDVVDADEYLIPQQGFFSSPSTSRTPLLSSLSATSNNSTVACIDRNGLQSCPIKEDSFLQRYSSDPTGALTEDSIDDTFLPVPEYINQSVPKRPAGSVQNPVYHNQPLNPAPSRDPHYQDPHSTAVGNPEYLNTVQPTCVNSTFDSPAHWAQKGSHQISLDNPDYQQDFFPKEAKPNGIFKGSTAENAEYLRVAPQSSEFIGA

As for `Cc1cc2cc(n1)-c1cnn(C)c1OCCC[C@@H](C1CC1)CN1/C(=N/C2=O)Nc2ccc(C=CCCN(C)C)cc21` [Example 24], the IC50 in assay [1] was 0.031 nM; in assay [2] it was 0.02 nM; in assay [3], 0.021 nM; in assay [4], below 5 nM.

Regarding `Cc1cc2cc(n1)-c1cnn(C)c1OCCC[C@@H](C1CC1)CN1/C(=N/C2=O)Nc2cc(NC3(C(F)(F)F)COC3)ccc21` [Example 88], the IC50 in assay [1] was 0.01 nM; in assay [2], 0.177 nM; in assay [3], 0.181 nM; in assay [4] (Ba/F3 EGFR), below 5 nM.

On to `Cc1cc2cc(n1)-c1cnn(C)c1OC[C@H](C1CC1)CCCn1c(nc3ccc(NC4COC4)cc31)NC2=O` [Example 59], for which the values for the IC50 in assay [1], in assay [2] and in assay [3] were 0.081 nM, 0.085 nM and 0.074 nM, respectively.

As for `C[C@H](Nc1ccc2c(c1)N/C1=N\C(=O)c3cc(F)nc(c3)-c3cnn(C)c3OCCC[C@@H](C3CC3)CN12)C(F)(F)F` [Example 9], the results for the IC50 in assay [1], in assay [2] and in assay [3] were 0.45 nM, 0.5 nM and 0.45 nM, respectively.

Regarding `Cc1cc2cc(n1)-c1cnn(C)c1OCCC[C@@H](C1CC1)CN1/C(=N/C2=O)Nc2cc(N[C@H]3CC[C@@H](N(C)C)CC3)ccc21` [Example 26], the IC50 in assay [1] was 0.025 nM; in assay [2], 0.017 nM; in assay [3] it was 0.017 nM; in assay [4], below 5 nM.

Consider `Cc1cc2cc(n1)-c1cnn(C)c1OC[C@H](C1CC1)CCCn1c(nc3cc(NC4COC4)ccc31)NC2=O` [Example 60], for which the results for the IC50 in assay [1], in assay [2] and in assay [3] were 0.09 nM, 0.081 nM and 0.07 nM, respectively.

With `Cc1cc2cc(n1)-c1cnn(C)c1OCCC[C@@H](C1CC1)CN1/C(=N/C2=O)Nc2cc(N[C@H](C)C3COC3)ccc21` [Example 39], the IC50 is 0.04 nM in assay [1], 0.027 nM in assay [2], 0.024 nM in assay [3] and below 5 nM in assay [4].

`Cc1cc2cc(n1)-c1cnn(C)c1OCCC[C@@H](C1CC1)CN1/C(=N/C2=O)Nc2cc(N[C@H]3CC[C@H](N(C)C)CC3)ccc21` [Example 25]: the IC50 in assay [1] was 0.021 nM; in assay [2], 0.014 nM; in assay [3] it was 0.014 nM; in assay [4] it was below 5 nM.

Turning to `Cc1cc2cc(n1)-c1cnn(C)c1OCCC[C@@H](C1CC1)CN1/C(=N/C2=O)Nc2cc(NC3(C)COC3)ccc21` [Example 29], the IC50 in assay [3] is 0.015 nM; in assay [4] (Ba/F3 EGFR) it was below 5 nM.

In the case of `Cc1cc2cc(n1)-c1cnn(C)c1OCCC[C@@H](C1CC1)CN1/C(=N/C2=O)Nc2ccc(NCCN(C)C)cc21` [Example 28], the figures for the IC50 in assay [3] and in assay [4] (Ba/F3 EGFR) were 0.011 nM and below 5 nM, respectively.
